According to patent US8309581B2, “Benzimidazole derivatives” (Hoffmann-La Roche Inc., priority 2009, dated 2012):
pIC50: −log10 of the molar value.

Molecular target: T1, FXR ligand binding domain (Homo sapiens, UniProt Q96RI1)
T1 construct: made in house; host or cells: E. coli BL21 (pLysS)
T1 sequence (Q96RI1 193-472 isoform Q96RI1-2): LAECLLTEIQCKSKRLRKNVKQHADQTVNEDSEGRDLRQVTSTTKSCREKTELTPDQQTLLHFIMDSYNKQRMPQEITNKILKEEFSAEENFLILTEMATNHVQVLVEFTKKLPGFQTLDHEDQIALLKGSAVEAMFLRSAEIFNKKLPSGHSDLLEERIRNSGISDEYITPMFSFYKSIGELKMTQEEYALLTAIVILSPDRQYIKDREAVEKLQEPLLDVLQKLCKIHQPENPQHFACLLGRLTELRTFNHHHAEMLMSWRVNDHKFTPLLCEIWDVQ
Assay: Radioligand Binding Assay (scintillation proximity radioligand displacement)
Conditions: GST-FXR LBD fusion protein on SPA beads, test compound 6×10^−9 M to 2.5×10^−5 M
Method: The following tests were carried out in order to determine the activity of the compounds of formula (I). Background information on the binding assay can be found in: Nichols J S et al. “Development of a scintillation proximity assay for peroxisome proliferator-activated receptor gamma ligand binding domain”, (1998) Anal. Biochem. 257: 112-119.
Bacterial and mammalian expression vectors were constructed to produce glutathione-s-transferase (GST) and Gal4 DNA binding domain (GAL) proteins fused to the ligand binding domain (LBD) of human FXR (aa 193-473). To accomplish this, the portions of the sequences encoding the FXR LBD were amplified by polymerase chain reaction (PCR) from a full-length clone by PCR and then subcloned into the plasmid vectors. The final clone was verified by DNA sequence analysis.
The induction, expression, and subsequent purification of GST-LBD fusion protein was performed in E. coli strain BL21 (pLysS) cells by standard methods (Current Protocols in Molecular Biology, Wiley Press, ed. Ausubel et al.).
Radioligand Binding Assay
Binding of test substances to the FXR ligand binding domain was assessed in a radioligand displacement assay. The assay was performed in a buffer consisting of 50 mM Hepes, pH 7.4, 10 mM NaCl, 5 mM MgCl2, 0.01% CHAPS. For each reaction well in a 96-well plate, 40 nM of GST-FXR LBD fusion protein was bound to […] glutathione ytrium silicate SPA beads (PharmaciaAmersham) in a final volume of […] by shaking. A radioligand (e.g., 20 nM of 2,N-dicyclohexyl-2-[2-(2,4 dimethoxy-phenyl)-benzoimidazol-1-yl]-acetamide) and test compounds were added, and scintillation proximity counting was performed. All binding assays were performed in 96-well plates and the amount of bound ligand was measured on a Packard TopCount using OptiPlates (Packard). Dose response curves were performed within a range of test compound concentrations from 6×10^−9 M to 2.5×10^−5 M and IC50 values were calculated.

`Fc1cc2nc(-c3ccc(Cl)cc3OCC3CCCCO3)n(Cc3ccc(-c4nnn[nH]4)cc3F)c2cc1F` (centres unmarked) [Example 93, 2-[4-Chloro-2-(tetrahydro-pyran-2-ylmethoxy)-phenyl]-5,6-difluoro-1-[2-fluoro-4-(1H-tetrazol-5-yl)-benzyl]-1H-benzoimidazole] was tested, and the pIC50 was 7.22.
In the case of `Fc1cc2nc(-c3ccc(Cl)cc3OCCc3ccc(-c4nnn[nH]4)cc3)n(CC3CCCCC3)c2cc1F` [Example 36, 2-(4-Chloro-2-{2-[4-(1H-tetrazol-5-yl)-phenyl]-ethoxy}-phenyl)-1-cyclohexylmethyl-5,6-difluoro-1H-benzoimidazole], the pIC50 was 7.05.
Compound `Fc1cc2nc(-c3ccc(Cl)cc3OCC3CCCC3)n(Cc3ccccc3)c2cc1F` [Example 49, 1-Benzyl-2-(4-chloro-2-cyclopentylmethoxy-phenyl)-5,6-difluoro-1H-benzoimidazole] has a pIC50 of 5.96.
`Fc1cc2nc(-c3ccccc3COc3ccc(-c4nnn[nH]4)c(F)c3)n(CC3CCCCC3)c2cc1F` [Example 41, 1-Cyclohexylmethyl-5,6-difluoro-2-{2-[3-fluoro-4-(1H-tetrazol-5-yl)-phenoxymethyl]-phenyl}-1H-benzoimidazole] gave a pIC50 of 6.70.
`Fc1cc2nc(-c3ccc(Cl)cc3OCc3ccccc3Cl)n(CC3CCCCC3)c2cc1F` [Example 19, 2-[4-Chloro-2-(2-chloro-benzyloxy)-phenyl]-1-cyclohexylmethyl-5,6-difluoro-1H-benzoimidazole] gave a pIC50 of 6.52.
`Fc1cc2nc(-c3ccc(Cl)cc3C#Cc3ccc(-c4nnn[nH]4)cc3)n(CC3CCCCC3)c2cc1F` [Example 72, 2-{4-Chloro-2-[4-(1H-tetrazol-5-yl)-phenylethynyl]-phenyl}-1-cyclohexylmethyl-5,6-difluoro-1H-benzoimidazole] was tested, and the pIC50 was 5.44.
`O=C(O)c1ccc(COc2cc(Cl)ccc2-c2nc3cc(F)c(F)cc3n2Cc2cccc(Cl)c2)cc1` [Example 56, 4-{5-Chloro-2-[1-(3-chloro-benzyl)-5,6-difluoro-1H-benzoimidazol-2-yl]-phenoxymethyl}-benzoic acid] was tested, and the pIC50 was 6.30.
With `Fc1cc2nc(-c3cccnc3OCc3ccccc3Cl)n(CC3CCCCC3)c2cc1F` [Example 3, 2-[2-(2-Chloro-benzyloxy)-pyridin-3-yl]-1-cyclohexylmethyl-5,6-difluoro-1H-benzoimidazole] the pIC50 was 6.15.
With `O=C(O)c1ccc(CCOc2cc(Cl)ccc2-c2nc3cc(F)c(F)cc3n2CC2CCCCC2)cc1` [Example 27, 4-{2-[5-Chloro-2-(1-cyclohexylmethyl-5,6-difluoro-1H-benzoimidazol-2-yl)-phenoxy]-ethyl}-benzoic acid] the pIC50 was 6.30.
For `O=C(O)c1ccc(CCc2ccccc2-c2nc3cc(F)c(F)cc3n2CC2CCCCC2)cc1` [Example 77, 4-{2-[2-(1-Cyclohexylmethyl-5,6-difluoro-1H-benzoimidazol-2-yl)-phenyl]-ethyl}-benzoic acid], the pIC50 was 7.52.
Compound `O=C(O)c1cccc(COc2cc(Cl)ccc2-c2nc3cc(F)c(F)cc3n2CC2CCCCC2)c1` [Example 24, 3-[5-Chloro-2-(1-cyclohexylmethyl-5,6-difluoro-1H-benzoimidazol-2-yl)-phenoxymethyl]-benzoic acid] has a pIC50 of 6.15.
In the case of `Fc1cc2nc(-c3ccc(Cl)cc3OCC3CCCCC3)n(CC3CCCCC3)c2cc1F` [Example 22, 2-(4-Chloro-2-cyclohexylmethoxy-phenyl)-1-cyclohexylmethyl-5,6-difluoro-1H-benzoimidazole], the pIC50 was 6.70.
`O=C(O)c1ccc(CCc2cc(Cl)ccc2-c2nc3ccccc3n2CC2CCCCC2)cc1` [Example 75, 4-{2-[5-Chloro-2-(1-cyclohexylmethyl-1H-benzoimidazol-2-yl)-phenyl]-ethyl}-benzoic acid] showed a pIC50 of 7.52.
In the case of `Fc1cc2nc(-c3ccc(Cl)cc3OCC3CC3)n(Cc3cccc(Cl)c3)c2cc1F` [Example 55, 1-(3-Chloro-benzyl)-2-(4-chloro-2-cyclopropylmethoxy-phenyl)-5,6-difluoro-1H-benzoimidazole], the pIC50 was 5.59.
`Fc1cc2nc(-c3ccc(Cl)cc3OCC3CCOCC3)n(Cc3ccc(-c4nnn[nH]4)cc3F)c2cc1F` [Example 90, 2-[4-Chloro-2-(tetrahydro-pyran-4-ylmethoxy)-phenyl]-5,6-difluoro-1-[2-fluoro-4-(1H-tetrazol-5-yl)-benzyl]-1H-benzoimidazole] was tested, and the pIC50 was 5.80.
Compound `Fc1cc2nc(-c3cccnc3OCC3CCCC3)n(CC3CCCCC3)c2cc1F` [Example 1, 1-Cyclohexylmethyl-2-(2-cyclopentylmethoxy-pyridin-3-yl)-5,6-difluoro-1H-benzoimidazole] has a pIC50 of 6.70.
`Fc1cc2nc(-c3ccc(Cl)cc3OCc3ccccc3Cl)n(Cc3ccccc3)c2cc1F` [Example 48, 1-Benzyl-2-[4-chloro-2-(2-chloro-benzyloxy)-phenyl]-5,6-difluoro-1H-benzoimidazole] was tested, and the pIC50 was 6.40.
`O=C(O)c1ccc(COc2cc(Cl)ccc2-c2nc3cc(F)c(F)cc3n2Cc2ccccc2)cc1` [Example 51, 4-[2-(1-Benzyl-5,6-difluoro-1H-benzoimidazol-2-yl)-5-chloro-phenoxymethyl]-benzoic acid] showed a pIC50 of 6.30.
`O=C(O)COc1ccc(COc2cc(Cl)ccc2-c2nc3cc(F)c(F)cc3n2CC2CCCCC2)cc1` [Example 25, {4-[5-Chloro-2-(1-cyclohexylmethyl-5,6-difluoro-1H-benzoimidazol-2-yl)-phenoxymethyl]-phenoxy}-acetic acid] showed a pIC50 of 7.00.
`O=C(Nc1ccc(-c2nnn[nH]2)cc1F)c1ccccc1-c1nc2cc(F)c(F)cc2n1CC1CCCCC1` [Example 86, 2-(1-Cyclohexylmethyl-5,6-difluoro-1H-benzoimidazol-2-yl)-N-[2-fluoro-4-(1H-tetrazol-5-yl)-phenyl]-benzamide] gave a pIC50 of 8.52.
For `Fc1cc2nc(-c3ccc(Cl)cc3OCC3CCC3)n(Cc3ccc(-c4nnn[nH]4)cc3F)c2cc1F` [Example 92, 2-(4-Chloro-2-cyclobutylmethoxy-phenyl)-5,6-difluoro-1-[2-fluoro-4-(1H-tetrazol-5-yl)-benzyl]-1H-benzoimidazole], the pIC50 was 7.70.
In the case of `O=C(O)CCc1ccc(Cn2c(-c3cccnc3OCC3CC3)nc3cc(F)c(F)cc32)cc1` [Example 16, 3-{4-[2-(2-Cyclopropylmethoxy-pyridin-3-yl)-5,6-difluoro-benzoimidazol-1-ylmethyl]-phenyl}-propionic acid], the pIC50 was 4.18.
`O=C(O)c1ccc(Cn2c(-c3ccc(Cl)cc3OCC3CCCC3)nc3cc(F)c(F)cc32)cc1` [Example 62, 4-[2-(4-Chloro-2-cyclopentylmethoxy-phenyl)-5,6-difluoro-benzoimidazol-1-ylmethyl]-benzoic acid] showed a pIC50 of 6.40.
`Fc1cc2nc(-c3ccc(Cl)cc3OCC3CCCC3)n(Cc3cccc(-c4nnn[nH]4)c3)c2cc1F` [Example 67, 2-(4-Chloro-2-cyclopentylmethoxy-phenyl)-5,6-difluoro-1-[3-(1H-tetrazol-5-yl)-benzyl]-1H-benzoimidazole] gave a pIC50 of 7.05.
With `Fc1cc2nc(-c3ccccc3COc3ccc(-c4nnn[nH]4)cc3F)n(CC3CCCCC3)c2cc1F` [Example 40, 1-Cyclohexylmethyl-5,6-difluoro-2-{2-[2-fluoro-4-(1H-tetrazol-5-yl)-phenoxymethyl]-phenyl}-1H-benzoimidazole] the pIC50 was 8.40.
Work on `Fc1cc2nc(-c3ccc(Cl)cc3OCC3CC3)n(Cc3ccccc3)c2cc1F` [Example 50, 1-Benzyl-2-(4-chloro-2-cyclopropylmethoxy-phenyl)-5,6-difluoro-1H-benzoimidazole] yielded a pIC50 of 5.72.
`O=C(O)COc1ccc(COc2ncccc2-c2nc3cc(F)c(F)cc3n2Cc2ccccc2)cc1` [Example 10, {4-[3-(1-Benzyl-5,6-difluoro-1H-benzoimidazol-2-yl)-pyridin-2-yloxymethyl]-phenoxy}-acetic acid] showed a pIC50 of 4.89.
In the case of `Fc1cc2nc(-c3ccc(Cl)cc3OCc3ccc(-c4nnn[nH]4)cc3F)n(CC3CCOCC3)c2cc1F` [Example 47, 2-{4-Chloro-2-[2-fluoro-4-(1H-tetrazol-5-yl)-benzyloxy]-phenyl}-5,6-difluoro-1-(tetrahydro-pyran-4-ylmethyl)-1H-benzoimidazole], the pIC50 was 6.05.
Compound `Fc1cc2nc(-c3ccc(Cl)cc3CCc3ccc(-c4nnn[nH]4)cc3)n(CC3CCCCC3)c2cc1F` [Example 73, 2-(4-Chloro-2-{2-[4-(1H-tetrazol-5-yl)-phenyl]-ethyl}-phenyl)-1-cyclohexylmethyl-5,6-difluoro-1H-benzoimidazole] has a pIC50 of 8.00.
